Experimental findings from patent US20260176289A1, “SMALL MOLECULE INHIBITORS OF KRAS PROTEINS” (Merck Sharp & Dohme LLC, priority 2022, published 2026) are described below.

In test [1] the target is KRAS-WT (Homo sapiens, UniProt P01116). Description: SOS-catalyzed nucleotide exchange assay (Procedure A, TR-FRET), KRAS-WT. The format is biochemical. An outline of the steps:
(§1)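 RAS (G12C carries C51S/C80L/C118S) loaded with Bodipy-GDP, complexed with Tb-streptavidin; cpd 60 min RT; + SOS/3 mM GTP. G12C 3/40 nM, WT 1/40, NRAS 1.25/40 nM RAS/SOS, 60 min; G12V 1.25/160 nM, 90 min. Normalized to DMSO and saturating inhibitor; 4PL fit.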
For orientation: Time-resolved FRET reads energy transfer from a long-lived donor to a nearby acceptor.

In test [2] the target is KRAS-G12V (Homo sapiens, UniProt P01116, G12V). The test is described as follows: SOS-catalyzed nucleotide exchange assay (Procedure A, TR-FRET), KRAS-G12V. The format is biochemical. In outline:
as §1

Test [3] concerns the target KRAS-G12D (Homo sapiens, UniProt P01116, G12D). The test is described as follows: SOS-catalyzed nucleotide exchange assay (Procedure A, TR-FRET), KRAS-G12D. The format is biochemical. In outline: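 Signal ratio (520/495 nm, excitation 340 nm) reports Bodipy-GDP retention on biotinylated RAS after SOS-catalyzed exchange with 3 mM GTP. SOS was 40 nM, except 160 nM for G12V. Room-temperature exchange lasted 60 min (90 min for G12V), following a 60 min compound preincubation.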

Test [4] relates to AsPC-1 cells. Description: Cellular phospho-ERK assay, AsPC-1 cells (homozygous KRAS-G12D). The format is cell-based. As to conditions: Homo sapiens, read-out: AsPC1 pERK IC50. An outline of the steps: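 p-ERK/total ERK ratio, measured by AlphaLISA SureFire Ultra multiplex in lysates, was fitted to a 4-parameter logistic model for IC50. Compound exposure was 2 h at 37° C, 5% CO2, 10-point 1:3 dilutions from 30 μM final, on cells plated the previous night.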

Where [5] appears, read: nucleotide exchange, read-out: KRAS WT GNE IC50.
The mark [6] stands for this setting: nucleotide exchange, read-out: KRAS G12V GNE IC50.
Where [7] appears, read: nucleotide exchange, read-out: KRAS G12D GNE IC50.
[8] abbreviates: ASPC1, 2 h, 2 hours compound incubation.
Where [9] appears, read: KRAS WT GNE IC50, nucleotide exchange.
The mark [10] stands for this setting: KRAS G12V GNE IC50, nucleotide exchange.
[11] abbreviates: KRAS G12D GNE IC50, nucleotide exchange.
The mark [12] stands for this setting: ASPC1, 2 hours compound incubation.

Like-named read-outs stand apart in the source and are kept apart here.

Chain of KRAS-G12D (P01116 with tags, fused parts or gaps isoform P01116-2 G12D): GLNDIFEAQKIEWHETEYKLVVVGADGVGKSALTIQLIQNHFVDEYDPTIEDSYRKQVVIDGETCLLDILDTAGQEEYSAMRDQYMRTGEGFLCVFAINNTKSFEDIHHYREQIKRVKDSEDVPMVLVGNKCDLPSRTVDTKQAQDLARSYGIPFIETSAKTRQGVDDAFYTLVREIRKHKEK
Chain of KRAS-WT (P01116 with tags, fused parts or gaps isoform P01116-2): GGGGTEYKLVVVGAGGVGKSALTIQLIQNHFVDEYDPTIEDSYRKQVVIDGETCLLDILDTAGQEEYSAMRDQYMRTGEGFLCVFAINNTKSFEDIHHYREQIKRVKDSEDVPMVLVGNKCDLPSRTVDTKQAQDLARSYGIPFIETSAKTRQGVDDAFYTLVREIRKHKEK
Chain of KRAS-G12V (P01116 with tags, fused parts or gaps isoform P01116-2 G12V): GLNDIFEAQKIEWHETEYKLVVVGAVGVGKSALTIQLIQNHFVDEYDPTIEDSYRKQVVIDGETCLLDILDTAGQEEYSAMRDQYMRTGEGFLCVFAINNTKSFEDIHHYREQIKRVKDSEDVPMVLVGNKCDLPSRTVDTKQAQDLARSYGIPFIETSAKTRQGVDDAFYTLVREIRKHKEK

What is called IC50 is the point on the concentration scale where inhibition reaches its midpoint. `C[C@@]1(O)COCCN(c2nc(OC[C@@]34CCCN3C[C@H](F)C4)nc3sc4c(-c5c6c(cc7[nH]ncc57)CCC6C(F)(F)F)nccc4c23)C1` (stereo partly drawn) [Ex-92]: the half-inhibitory concentration (IC50) in test [1] (setting [5]) is 0.482 µM; in test [2] (setting [6]) it was 0.34 µM; in test [3] (setting [7]) it was 0.226 µM; in test [4] (ASPC1, 2 h, KRAS-G12D, 2 hours) it was 1.86 µM.

On to `CN(C)C[C@@]1(COc2nc(N3CCOC[C@@](C)(O)C3)c3c(n2)sc2c(-c4c(C5CC5)c(Cl)cc5[nH]ncc45)nncc23)CC1(F)F` [Ex-287, (6S)-4-(8-(6-chloro-5-cyclopropyl-1H-indazol-4-yl)-2-(((R)-1-((dimethylamino)methyl)-2,2-difluorocyclopropyl)meth-oxy)pyrimido[5′,4′:4,5]thi-eno[2,3-d]pyridazin-4-yl)-6-methyl-1,4-oxazepan-6-ol], for which the IC50 turned out to be 0.0102 µM in test [1] (setting [5]); 0.0159 µM in test [2] (setting [6]); 0.00528 µM in test [3] (setting [7]); 0.0415 µM in test [4] (ASPC1, 2 h, KRAS-G12D, 2 hours).

With `Cc1cc2cnn(C)c2c(-c2nccc3c2sc2nc(OC[C@@]45CCCN4C[C@H](F)C5)nc(N4CCOC[C@@](C)(O)C4)c23)c1C(F)(F)F` [Ex-157, (6S)-4-(8-(1,5-dimethyl-6-(trifluoromethyl)-1H-indazol-7-yl)-2-(((2R,7aS)-2-fluorotetrahydro-1H-pyrrolizin-7a(5H)-yl)methoxy)pyrido[4′,3′:4,5]thieno[2,3-d]pyrimidin-4-yl)-6-methyl-1,4-oxazepan-6-ol], the IC50 in test [1] (setting [5]) is 9.65 µM; in test [2] (setting [6]), 4.23 µM; in test [3] (setting [7]), 0.288 µM; in test [4] (setting [8]) it was 1.31 µM.

Turning to `CC1CCc2ccc(F)c(-c3nccc4c3sc3nc(OC[C@@]56CCCN5C[C@H](F)C6)nc(N5CCOC[C@@](C)(O)C5)c34)c21` (single isomer, unassigned) [Ex-118], the 50% inhibitory concentration (IC50) in test [1] (setting [5]) was 0.432 µM; in test [2] (setting [6]), 0.123 µM; in test [3] (setting [7]), 0.15 µM; in test [4] (ASPC1, 2 h, KRAS-G12D, 2 hours), 1.06 µM.

Regarding `C[C@@]1(O)COCCN(c2nc(OC[C@]3(CN4CC5(CCC5)C4)CC3(F)F)nc3sc4c(-c5c(C6(F)CC6)c(Cl)cc6[nH]ncc56)nccc4c23)C1` [Ex-256, (6S)-4-(2-(((R)-1-((2-azaspiro[3.3]heptan-2-yl)methyl)-2,2-difluorocyclopropyl)methoxy)-8-(6-chloro-5-(1-fluorocyclopropyl)-1H-indazol-4-yl)pyrido[4′,3′:4,5]thieno[2,3-d]pyrimidin-4-yl)-6-methyl-1,4-oxazepam-6-ol], the IC50 was 0.0165 µM in test [1] (setting [9]), 0.0111 µM in test [2] (setting [10]), 0.00441 µM in test [3] (setting [11]) and 0.126 µM in test [4] (setting [12]).

On to `CNc1cc2c(sc3nc(OC[C@@]45CCCN4C[C@H](F)C5)nc(N4CCOC[C@@](C)(O)C4)c32)c(-c2c(C(F)(F)F)c(C)cc3[nH]ncc23)n1` [Ex-30, (6S)-4-(2-(((2R,7aS)-2-fluorotetrahydro-1H-pyrrolizin-7a(5H)-yl)methoxy)-8-(6-methyl-5-(trifluoromethyl)-1H-indazol-4-yl)-6-(methylamino)pyrido[4′,3′:4,5]thieno[2,3-d]pyrimidin-4-yl)-6-methyl-1,4-oxazepan-6-ol], for which the IC50 in test [1] (setting [5]) is 0.436 µM; in test [2] (setting [6]) it was 0.196 µM; in test [3] (setting [7]) it was 0.158 µM; in test [4] (ASPC1, 2 h, KRAS-G12D, 2 hours), 0.73 µM.

Consider `C[C@H]1CN(C[C@@]2(COc3nc(N4CCOC[C@@](C)(O)C4)c4c(n3)sc3c(-c5c(C6(F)CC6)c(Cl)cc6[nH]ncc56)nccc34)CC2(F)F)CCO1` [Ex-244, (6S)-4-(8-(6-chloro-5-(1-fluorocyclopropyl)-1H-indazol-4-yl)-2-(((R)-2,2-difluoro-1-(((S)-2-methylmorpholino)methyl)cy-clopropyl)methoxy)pyrido[4′, 3′:4,5]thieno[2,3-d]pyrimidin-4-yl)-6-methyl-1,4-oxazepan-6-ol], for which the IC50 in test [1] (setting [5]) was 0.699 µM; in test [2] (setting [6]), 0.207 µM; in test [3] (setting [7]), 0.14 µM; in test [4] (setting [8]), 0.711 µM.

Consider `Cc1cc2[nH]ncc2c(-c2nccn3c2cc2nc(OC[C@@]45CCCN4C[C@H](F)C5)nc(N4CCOC[C@@](C)(O)C4)c23)c1C1CC1` [Ex-295, (S)-4-(9-(5-cyclopropyl-6-methyl-1H-indazol-4-yl)-2-(((2R,7aS)-2-fluorotetrahydro-1H-pyrrolizin-7a(5H)-yl)methoxy)pyrazino[1′,2′:1,5]pyrrolo[3,2-d]pyrimidin-4-yl)-6-methyl-1,4-oxazepan-6-ol], for which the IC50 in test [1] (setting [5]) was 0.185 µM; in test [2] (setting [6]) it was 0.0982 µM; in test [3] (setting [7]), 0.0721 µM; in test [4] (ASPC1, 2 h, KRAS-G12D, 2 hours), 1.9 µM.

Regarding `C[C@@]1(O)COCCN(c2nc(OC[C@@]34CCCN3C[C@H](F)C4)nc3sc4c(-c5c6c(cc7[nH]ncc57)CCC6=C(F)F)nccc4c23)C1` [Ex-177, (6S)-4-(8-(5-(difluoro-methylene)-1,5,6,7-tetrahydrocyclopenta [f]indazo1-4-yl)-2-(((2R,7aS)-2-fluoro-tetrahydro-1H-pyr-rolizin-7a(5H)-yl)-methoxy)pyrido[4′,3′: 4,5]thieno[2,3-d]pyr-imidin-4-yl)-6-methyl-1,4-oxazepam-6-ol], the half-maximal inhibitory concentration (IC50) worked out at 0.0774 µM in test [1] (setting [9]), 0.0617 µM in test [2] (setting [10]), 0.0231 µM in test [3] (setting [11]) and 0.248 µM in test [4] (setting [12]).

In the case of `C[C@@H]1C[C@@H](COc2nc(N3CCOC[C@@](C)(O)C3)c3c(n2)sc2c(-c4c(C5CC5)c(C(F)(F)F)cc5[nH]ncc45)nccc23)N(C)C1` [Ex-83, (6S)-4-(8-(5-cyclopropyl-6-(trifluoromethyl)-1H-indazol-4-yl)-2-(((2S,4R)-1,4-dimethylpyrrolidin-2-yl)methoxy)pyrido[4′,3′:4,5]thi-eno[2,3-d]pyrimidin-4-yl)-6-methyl-1,4-oxazepan-6-ol], the concentration for half-maximal inhibition (IC50) is 0.13 µM in test [1] (setting [5]); 0.103 µM in test [2] (setting [6]); 0.0801 µM in test [3] (setting [7]); 1.36 µM in test [4] (ASPC1, 2 h, KRAS-G12D, 2 hours).

Turning to `C[C@@]1(O)COCCN(c2nc(OC[C@]3(CN4[C@@H]5CC[C@H]4C[C@H](F)C5)CC3(F)F)nc3sc4c(-c5c(C6(F)CC6)c(Cl)cc6[nH]ncc56)nccc4c23)C1` [Ex-251, (6S)-4-(8-(6-chloro-5-(1-fluorocyclopropyl)-1H-indazol-4-yl)-2-(((R)-2,2-difluoro-1-(((1R,3S,5S)-3-fluoro-8-azabicyclo[3.2.1]octan-8-yl)methyl)cyclopropyl)metho-xy)pyrido[4′,3′:4,5]thieno[2,3-d]pyrimidin-4-yl)-6-methyl-1,4-oxazepan-6-ol], the 50% inhibitory concentration (IC50) in test [1] (setting [5]) was determined as 0.489 µM; in test [2] (setting [6]), 0.11 µM; in test [3] (setting [7]), 0.053 µM; in test [4] (setting [8]) it was 0.67 µM.

Take `CN(C)C1CC(F)(F)C2C[C@]12COc1nc(N2CCOC[C@@](C)(O)C2)c2c(n1)sc1c(-c3c(C4(F)CC4)c(Cl)cc4[nH]ncc34)nccc12` (stereo partly drawn) [Ex-270, (6S)-4-(8-(6-chloro-5-(1-fluorocyclopropyl)-1H-indazol-4-yl)-2-((2-(dimethylamino)-4,4-difluorobicy-clo[3.1.0]hexan-1-yl)methoxy)pyri-do[4′,3′:4,5]thi-eno[2,3-d]pyrimidin-4-yl)-6-methyl-1,4-oxazepan-6-ol]: the concentration for half-maximal inhibition (IC50) in test [1] (setting [5]) worked out at 0.0279 µM; in test [2] (setting [6]), 0.0309 µM; in test [3] (setting [7]), 0.00878 µM; in test [4] (ASPC1, 2 h, KRAS-G12D, 2 hours), 0.142 µM.
